Measurements taken from ChEMBL document CHEMBL5604063, “ASAP - DENV-2 NS2B-NS3 protease fluorescence dose response” (2024).
Several values for one entry are separate records, joined by “and”; a condition that tells them apart may be missing. Equal entries are not always repeated.

biological target: Genome polyprotein (dengue virus type 2, UniProt P29990); type: functional, Thailand/16681/1984
Sequence (P29990 1346-1475 limits assumed): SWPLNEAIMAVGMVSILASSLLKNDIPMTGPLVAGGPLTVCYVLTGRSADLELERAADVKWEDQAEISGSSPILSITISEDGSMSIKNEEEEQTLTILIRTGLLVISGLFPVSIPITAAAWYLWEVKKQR
Sequence (P29990 1476-2093 limits assumed): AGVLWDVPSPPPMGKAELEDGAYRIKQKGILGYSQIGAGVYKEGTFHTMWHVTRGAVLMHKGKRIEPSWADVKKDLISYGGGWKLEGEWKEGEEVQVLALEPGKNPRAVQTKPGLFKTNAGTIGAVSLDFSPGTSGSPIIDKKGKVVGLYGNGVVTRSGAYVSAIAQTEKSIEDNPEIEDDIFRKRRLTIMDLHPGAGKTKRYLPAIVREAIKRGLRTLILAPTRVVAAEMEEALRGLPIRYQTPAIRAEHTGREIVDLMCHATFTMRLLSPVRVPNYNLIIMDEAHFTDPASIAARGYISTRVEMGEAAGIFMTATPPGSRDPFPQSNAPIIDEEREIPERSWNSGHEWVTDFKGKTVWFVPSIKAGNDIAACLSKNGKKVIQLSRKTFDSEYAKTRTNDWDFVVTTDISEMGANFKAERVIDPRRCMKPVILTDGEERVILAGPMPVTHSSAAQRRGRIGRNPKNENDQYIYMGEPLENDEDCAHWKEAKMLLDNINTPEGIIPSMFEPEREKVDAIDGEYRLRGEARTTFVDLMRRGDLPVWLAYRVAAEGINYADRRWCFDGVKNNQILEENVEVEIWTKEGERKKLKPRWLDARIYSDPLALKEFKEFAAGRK

Compound | IC50
Cc1cc(N2CCC(NS(=O)(=O)c3ccc(Cl)cc3C(=O)O)CC2)nc(C)n1 | > 99.5 µM
NC[C@@H]1CN(c2cc(-c3ccc(N)nc3)cc3c2COB3O)C(=O)O1 | > 99.5 µM
CCn1c(=O)c(N2C[C@H](O)C3(CC3)C2)nc2ccccc21 | > 99.5 µM
NCc1cccc(NC(=O)[C@H](NC(=O)C2CCC2)c2ccc(OCc3ccccc3)cc2)c1 | > 99.5 µM
[O-][S@@+](Cc1ncccn1)c1ncccc1Br | > 99.5 µM
Cn1c(C(=O)N2CCCc3ccc(C(F)F)cc32)cc2c1CCNC2 | > 99.5 µM
CCn1ccnc(N2CC[C@H](c3cccnc3)C2)c1=O | > 99.5 µM
O=C(c1cc(Cl)ccc1NS(=O)(=O)c1ccc(Oc2ccccc2Cl)cc1)N1CC[C@H](CO)C1 | 91.2 µM
NCc1cc(S(=O)(=O)Nc2ccc(Cl)cc2C(=O)NCC(F)(F)F)ccc1Oc1ccccc1 | > 99.5 µM
NCc1cccc(NC(=O)[C@H](NC(=O)Cn2cccn2)c2ccc(OCc3ccccc3)cc2)c1 | > 99.5 µM
O=C(c1cc(Cl)ccc1NS(=O)(=O)c1ccc(Oc2ccccc2Cl)cc1)N1CCC[C@H](O)C1 | 63.6 µM
CC(C)[C@H](NC(=O)[C@@H]1CCCN1C(=O)OCc1ccccc1)P(=O)(Oc1ccc(F)cc1)Oc1ccc(F)cc1 | > 99.5 µM
O=C(c1cc(Cl)ccc1NS(=O)(=O)c1ccc(Oc2ccccc2Cl)cc1)N1CCCC1 | 66.2 µM
CCn1c(=O)c(N2CC[C@]3(CCSC3)C2)nc2ccccc21 | > 99.5 µM
CCn1cc(-c2cccc(-c3ccccc3)c2)nc(N2CC[C@@H](CO)C2)c1=O | > 99.5 µM
NCc1cccc(NC(=O)[C@@H](NC(=O)OCc2ccccc2)c2c(F)cccc2F)c1 | > 99.5 µM
O=C(O)c1cc(Cl)ccc1S(=O)(=O)Nc1ccc(-c2cccc(F)c2)cc1 | 27 µM
O=C(O)c1cc(Cl)cc(NS(=O)(=O)c2ccc(-c3ccc(F)cc3)cc2)c1 | 90.6 µM
O=Cc1ccc(N2CCC(C(=O)N3CCN(CCc4ccccc4)CC3)CC2)cc1 | 35.6 µM
O=C(O)c1cc(Cl)ccc1S(=O)(=O)Nc1ccc(CN2CCCCC2)cc1 | > 99.5 µM
NCc1cccc(NC(=O)[C@H]2c3ccc(OCc4ccccc4)cc3CCN2C(=O)OCc2ccccc2)c1 | > 99.5 µM
CNC(=O)c1cc(OC)ccc1NS(=O)(=O)c1ccc(Oc2ccccc2Cl)cc1 | > 99.5 µM
O=C(O)c1cc(Cl)ccc1S(=O)(=O)Nc1ccc(S(=O)(=O)N2CCCCC2)cc1 | > 99.5 µM
CCn1c(=O)c(N2CC[C@]3(CCCN(C)C3)C2)nc2ccccc21 | > 99.5 µM
NCc1cccc(NC(=O)c2cc(NC(=O)OCc3ccccc3)cc(Cl)c2Cl)c1 | 87.3 µM

Compound | IC50
NCc1cccc(NC(=O)[C@H]2c3ccccc3CCN2C(=O)OCc2ccccc2)c1 | > 99.5 µM
COc1ccc(NS(=O)(=O)c2ccc(Cl)cc2C(=O)O)cc1N1CCCC1=O | > 99.5 µM
C#C[C@H](Nc1ccc2c(c1)CNC2)c1cccc2c1CCNC2=O | > 99.5 µM
CCn1c(=O)c(N2CC3(COC3)[C@](F)(CO)C2)nc2ccccc21 | > 99.5 µM
COc1ccc(S(=O)(=O)Nc2ccc(C(=O)Nc3nc4ccccc4s3)cc2)cc1 | > 99.5 µM
CC(C)(C)OC(=O)NCc1cccc(NC(=O)[C@@H](NC(=O)OCc2ccccc2)c2ccc(O)cc2)c1 | > 99.5 µM
O=C(O)c1cc(Cl)ccc1S(=O)(=O)NC1CCN(c2ccc(C(F)(F)F)cn2)CC1 | > 99.5 µM
CCn1ccnc(N2CC[C@@H](CC(N)=O)C2)c1=O | > 99.5 µM
CCn1c(=O)c(N2CCC[C@@H]2Cn2cncn2)nc2ccccc21 | > 99.5 µM
CN1CC=C(c2ccc(S(=O)(=O)Nc3ccc(Cl)cc3C(=O)O)cc2)CC1 | > 99.5 µM
NCc1ccccc1C1CCN(C(=O)[C@@]23CNC[C@]2(C(F)(F)F)C3)CC1 | > 99.5 µM
CS(=O)(=O)Nc1cccc(C(=O)Nc2ccc3c(c2)CNC3)c1 | > 99.5 µM
CC(C)(C)c1ncc(-c2ccc([C@@H](NC(=O)OCc3ccccc3)C(=O)Nc3cccc(CN)c3)cc2)o1 | > 99.5 µM
Clc1ccc2ncn(Cc3ccc4c(c3)CNC4)c2c1 | > 99.5 µM
O=C(O)c1sc2cccnc2c1Br | > 99.5 µM
CCn1ccnc(N2CCC(c3c[nH]c4ccccc34)CC2)c1=O | > 99.5 µM
Cn1nc2c(c1NC(=O)c1cc(Cl)cc(NC(=O)OCc3ccccc3)c1)CNC2 | > 99.5 µM
O=C(O)c1cc(Cl)ccc1NS(=O)(=O)c1ccc(-c2cn[nH]c2)cc1 | > 99.5 µM
NCc1ccc(/C=C/C(=O)C(=O)N2CCOCC2)cc1 | > 99.5 µM
O=C(O)c1cc2cc(-c3nccc(C(F)F)n3)ccc2[nH]1 | > 99.5 µM
CNC(=O)c1cc(Cl)ccc1NS(=O)(=O)c1ccc(Oc2ccccc2Cl)cc1 | 33.7 µM
C[C@H]1CC[C@H](CS(=O)(=O)N[C@H](C(=O)Nc2cccc(CN)c2)c2ccc(OCc3ccccc3)cc2)CC1 | 34.2 µM
O=C(O)c1cc(Cl)ccc1NS(=O)(=O)c1ccc(-c2ccccc2Cl)cc1 | 6.93 µM
O=C(O)c1cc(Cl)ccc1S(=O)(=O)NC1CCN(Cc2ccccn2)CC1 | > 99.5 µM
CCn1cc(-c2cncc(OC)c2)nc(N2CC[C@@H](CO)C2)c1=O | > 99.5 µM

Compound | IC50
CN(C)CCC(=O)N1CCC([C@@H](NC(=O)OCc2ccccc2)C(=O)Nc2cccc(CN)c2)CC1 | > 99.5 µM
COCc1cc(Cl)cc(S(=O)(=O)Nc2cccc(-c3nnn[nH]3)c2)c1 | > 99.5 µM
CCc1ncc(CN2CCC(c3nc4ccccc4s3)CC2)[nH]1 | > 99.5 µM
O=C(NCc1ccccc1)c1cc(O)ccc1NS(=O)(=O)c1ccc(Oc2ccccc2Cl)cc1 | 86.4 µM
COCCNC(=O)[C@H](Nc1cccc([C@H]2CCOC2)c1)c1cc(Br)cc2[nH]ccc12 | > 99.5 µM
CC(C)Oc1ccccc1C(=O)N[C@H](C(=O)Nc1cccc(CN)c1)c1ccc(OCc2ccccc2)cc1 | 74.2 µM
NCc1cccc(NC(=O)[C@]2(NC(=O)OCc3ccccc3)CCOc3ccccc32)c1 | > 99.5 µM
CCn1c(=O)c(N2C[C@H](C)C[C@H]2c2ccccc2)nc2ccccc21 | > 99.5 µM
Cn1cc(-c2ccc([C@@H](NC(=O)OCc3ccccc3)C(=O)Nc3cccc(CN)c3)cc2)ccc1=O | > 99.5 µM
O=S(=O)(Nc1ccc(Cl)cc1CO)c1ccc(Oc2ccccc2Cl)cc1 | 78.8 µM
COc1ccc(CN(C)C)cc1NC(=O)[C@@H](NC(=O)OCc1ccccc1)c1ccc(OCc2ccccc2)cc1 | > 99.5 µM
NCc1cccc(NC(=O)[C@H](NC(=O)c2ccns2)c2ccc(OCc3ccccc3)cc2)c1 | > 99.5 µM
O=Cc1ccc(N2CCC(C(=O)N3CCN(c4cccc(O)c4)CC3)CC2)cc1 | 78.2 µM
NCc1cccc(NC(=O)[C@H](NC(=O)OCc2ccccc2)c2ccc(CO)cc2)c1 | > 99.5 µM
NC(=O)c1cc(Cl)ccc1NS(=O)(=O)c1ccc(-c2ccc(F)cc2)cc1 | 33.3 µM
O=C(O)c1cc(Cl)c(Cl)cc1NS(=O)(=O)c1ccc(Oc2ccccc2Cl)cc1 | 6.6 µM
NCc1cccc(NC(=O)[C@H](NC(=O)Cc2ccccc2)c2ccc(OCc3ccccc3)cc2)c1 | 32.8 µM and 32.1 µM
NCc1ccc(Oc2ccc(S(=O)(=O)Nc3ccc(Cl)cc3C(=O)NCC(F)(F)F)cc2)cc1 | > 99.5 µM
C[S@@+]([O-])c1nncn1Cc1ccc(Cl)s1 | > 99.5 µM
N#Cc1ccc(S(=O)(=O)CCn2nc(-c3ccco3)oc2=O)cc1 | > 99.5 µM
O=C(NCC(F)F)[C@H](Nc1ccc2c(n1)CNC2)c1cc(Cl)cc(C2CC2)c1 | > 296 µM
NCCCc1ccc(C(=O)N2CC(c3cccc(Br)c3)C2)cc1 | > 99.5 µM
Cc1cc(NC(=O)c2cc(C3CC3)n(C)c2C)cnc1N1CCCCC1 | > 99.5 µM
COc1ncc(C(=O)Nc2cccc(CN)c2)cc1NC(=O)OCc1ccccc1 | > 99.5 µM
COC1CN(C(=O)c2cc(Cl)ccc2NS(=O)(=O)c2ccc(Oc3ccccc3Cl)cc2)C1 | > 99.5 µM

Compound | IC50
O=C(N[C@@H](C(=O)NCc1cccnc1)c1ccc(OCc2ccccc2)cc1)OCc1ccccc1 | > 99.5 µM
COc1cc(N[C@@H](C(=O)N2CCc3ccc(OC(F)(F)F)cc32)c2ccc(Cl)cc2)cc(OCCCC(=O)O)c1 | 14.2 µM
O=C(N[C@@H](C(=O)NCc1cn[nH]c1)c1ccc(OCc2ccccc2)cc1)OCc1ccccc1 | > 99.5 µM
COc1ccc(F)cc1-c1ccc(S(=O)(=O)Nc2ccc(Cl)cc2C(N)=O)cc1 | 28.4 µM
O=C(Nc1cc(Cl)cc(C(=O)Nc2cccc(C3CCNCC3)c2)c1)OCc1ccccc1 | 20.5 µM and 20.3 µM
Cc1csc(COc2cccc([C@H](NC(=O)OCc3ccccc3)C(=O)Nc3cccc(CN)c3)c2)n1 | 27.2 µM
COc1ccc([C@@H](CC(=O)Nc2cccc(CN)c2)NC(=O)OCc2ccccc2)cc1Br | 50.1 µM
O=C(Nc1ccc2c(c1)CNC2)c1cc(F)cc(C=C2CCS(=O)(=O)CC2)c1 | > 99.5 µM
CN1CCN(Cc2cccc(CNC(=O)[C@@H](NC(=O)OCc3ccccc3)c3ccc(OCc4ccccc4)cc3)c2)CC1 | > 99.5 µM
O=C(O)c1cc(Cl)ccc1S(=O)(=O)Nc1ccc(-c2n[nH]c3c2CCCC3)cc1 | 73.2 µM
Cc1ccc(-c2nc(NC(=O)[C@H](NC(=O)OCc3ccccc3)c3ccc(OCc4ccccc4)cc3)sc2CN(C)C)cc1 | > 99.5 µM
NCc1ccc(COc2ccc(-c3ccc(N)nc3)c3c2OB(O)CC3)cc1 | > 99.5 µM
CCc1ccc(S(=O)(=O)N[C@@H](C(=O)Nc2cccc(CN)c2)c2ccc(OCc3ccccc3)cc2)cc1 | 92 µM
O=C(O)c1cc(Cl)ccc1S(=O)(=O)N[C@H]1CCN(Cc2ccccc2)C2(CC2)C1 | > 99.5 µM
Cn1cc(NS(=O)(=O)c2ccc(Oc3ccccc3Cl)cc2)c(C(=O)O)n1 | > 99.5 µM
O=C(N[C@@H](C(=O)NC1CCCCC1)c1ccc(OCc2ccccc2)cc1)OCc1ccccc1 | > 99.5 µM
O=C(Nc1cc(Cl)cc(C(=O)N[C@]2(c3nnn[nH]3)CCOC2)c1)OCc1ccccc1 | > 99.5 µM
NCc1cccc(NC(=O)[C@@H](NC(=O)OCc2ccccc2)c2ccc(C3=CCCOC3)cc2)c1 | > 99.5 µM
O=S(=O)(c1ccc(Oc2ccccc2Cl)cc1)n1ccc2cc(Cl)ccc21 | > 99.5 µM
NCc1cccc(NC(=O)Cc2cc(Cl)cc(NC(=O)OCc3ccccc3)c2)c1 | 85.8 µM
O=C(O)[C@@H]1CCCC[C@@H]1NS(=O)(=O)c1ccc(Oc2ccccc2Cl)cc1 | > 99.5 µM
Cc1ccc(CN)cc1-c1cccc([C@H](NC(=O)OCc2ccccc2)C(=O)Nc2cccc(CN)c2)c1 | 63.1 µM
CCOc1ccc(F)cc1-c1cn(CC)c(=O)c(N2CC[C@@H](CO)C2)n1 | > 99.5 µM
NC(=O)[C@H](c1c[nH]c2ccccc12)N1CCC(c2cnc3ccc[nH]c2-3)CC1 | > 99.5 µM
